Molecular target: PolQ ATPase enzyme (1-894) (Homo sapiens (Human), UniProt O75417)
Test: Polθ ATPase enzymatic assay (0.5 nM enzyme concentration), ADP-Glo
Format: biochemical
Details: average IC50; 0.5 nM PolQ ATPase enzyme (1-894)
In short: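 Enzyme (0.5 nM) pre-incubated 15 min at rt with 10-point inhibitor series in 50 mM Tris pH 7.5, 10% glycerol, 5 mM DTT, 10 mM MgCl2, 0.1 mg/ml BSA; reaction started with 20 nM fork DNA and 100 μM ATP, run 180 min at rt. ADP-Glo luminescence; IC50 from 4-parameter variable-slope fit.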

Sequence of PolQ ATPase enzyme (1-894) (O75417 1-894): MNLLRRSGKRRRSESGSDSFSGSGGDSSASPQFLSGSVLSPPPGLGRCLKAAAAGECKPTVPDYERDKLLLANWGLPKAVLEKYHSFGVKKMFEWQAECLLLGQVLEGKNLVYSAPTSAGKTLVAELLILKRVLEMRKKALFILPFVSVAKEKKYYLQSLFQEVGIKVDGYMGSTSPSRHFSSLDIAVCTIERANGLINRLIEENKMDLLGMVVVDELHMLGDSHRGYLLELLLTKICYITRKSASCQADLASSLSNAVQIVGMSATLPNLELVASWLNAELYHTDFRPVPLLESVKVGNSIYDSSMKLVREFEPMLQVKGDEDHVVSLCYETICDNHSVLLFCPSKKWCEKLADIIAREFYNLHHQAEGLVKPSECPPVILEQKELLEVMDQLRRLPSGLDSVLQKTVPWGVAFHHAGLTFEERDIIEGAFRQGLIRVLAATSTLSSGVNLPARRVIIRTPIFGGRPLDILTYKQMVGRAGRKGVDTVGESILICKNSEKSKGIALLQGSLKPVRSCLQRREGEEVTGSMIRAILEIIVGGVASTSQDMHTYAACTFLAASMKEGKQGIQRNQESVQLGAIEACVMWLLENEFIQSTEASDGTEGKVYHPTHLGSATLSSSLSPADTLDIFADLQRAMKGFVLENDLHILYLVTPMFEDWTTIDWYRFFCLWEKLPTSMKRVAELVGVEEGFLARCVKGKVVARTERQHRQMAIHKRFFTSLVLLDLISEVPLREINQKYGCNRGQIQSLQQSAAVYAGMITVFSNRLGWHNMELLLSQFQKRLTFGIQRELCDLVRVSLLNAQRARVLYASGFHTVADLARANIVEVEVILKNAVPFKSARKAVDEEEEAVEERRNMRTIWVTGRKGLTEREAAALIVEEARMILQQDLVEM

Row | IC50 [nM] | SMILES
1 | 0.46 | COc1cnc(C(F)F)cc1-c1cc(N2C(=O)COCC2C)ncc1C(=O)Nc1nnc(C#CC2CC2)s1 (stereo not drawn) [Compound 400]
2 | < 0.25 | COc1cnc(C(F)F)cc1-c1cc(Cc2nnc(C)o2)ncc1C(=O)Nc1ncc(C#CC2CC2)s1 [Compound 401]
3 | 0.88 | COc1cnc(Cl)nc1-c1cc(-c2nnc(C)o2)ccc1C(=O)Nc1nnc(C#CC2CC2)s1 [Compound 402]
4 | < 0.25 | O=C(Nc1nnc(C#CC2CC2)s1)c1cnc(-n2ccccc2=O)cc1-c1cc(C(F)F)ncc1Cl [Compound 403]
5 | < 0.25 | COc1cnc(C(F)F)cc1-c1cc(-c2nccn2C)ncc1C(=O)Nc1nnc(C#CC2CC2)s1 [Compound 404]
6 | < 0.25 | COc1cnc(C(F)F)cc1-c1cc(-c2cncn2C)ncc1C(=O)Nc1nnc(C#CC2CC2)s1 [Compound 405]
7 | 2.8 | [2H]C([2H])([2H])Oc1cnc(C(F)F)cc1-c1cc(-c2nnc(C)o2)ccc1C(=O)Nc1nnc(C#CC2CC2)s1 [Compound 406]
8 | < 0.25 | COc1cnc(Cl)nc1-c1cc(CC#N)ccc1C(=O)Nc1nnc(C#CC2CC2)s1 [Compound 407]
9 | 1.4 | COc1cnc(C(F)F)cc1-c1cc(-c2nnc(N(C)C)o2)ccc1C(=O)Nc1nnc(C#CC2CC2)s1 [Compound 408]
10 | < 0.25 | COc1cnc(C(F)F)cc1-c1cc(-c2oc(C)nc2C)ncc1C(=O)Nc1nnc(C#CC2CC2)s1 [Compound 409]
11 | 0.31 | COc1cnc(C(F)F)cc1-c1cc(-c2cnc(C)o2)ncc1C(=O)Nc1nnc(C#CC2CC2)s1 [Compound 410]
12 | 0.37 | COc1cnc(C(F)F)cc1-c1cc(-c2ccn(C)c2)ncc1C(=O)Nc1nnc(C#CC2CC2)s1 [Compound 411]
13 | 0.25 | COc1cnc(C(F)F)cc1-c1cc(-c2cn(C)c(C)n2)ccc1C(=O)Nc1nnc(C#CC2CC2)s1 [Compound 412]
14 | < 0.25 | COc1cnc(C(F)F)cc1-c1cc(-n2cc(F)ccc2=O)ncc1C(=O)Nc1nnc(C#CC2CC2)s1 [Compound 413]
15 | < 0.25 | COc1cnc(C(F)F)cc1-c1cc(-n2cc(F)c(C)cc2=O)ncc1C(=O)Nc1nnc(C#CC2CC2)s1 [Compound 414]
16 | 0.25 | COc1cnc(C(F)F)cc1-c1cc(N2CCN3CCCC3C2=O)ncc1C(=O)Nc1nnc(C#CC2CC2)s1 (stereo not drawn) [Compound 415]
17 | 0.69 | COc1cnc(C(F)F)cc1-c1cc(-c2cn(C)nc2F)ncc1C(=O)Nc1nnc(C#CC2CC2)s1 [Compound 416]
18 | 3.7 | COc1cnc(Cl)nc1-c1cc(-c2ccn(C)n2)ncc1C(=O)Nc1nnc(C#CC2CC2)s1 [Compound 417]
19 | 1.6 | COc1cnc(C(F)F)cc1-c1cc(-c2nnc(NC(C)=O)o2)ccc1C(=O)Nc1nnc(C#CC2CC2)s1 [Compound 418]
20 | 0.72 | COc1cnc(C(F)F)cc1-c1cc(-c2cnn(CC#N)c2)ncc1C(=O)Nc1nnc(C#CC2CC2)s1 [Compound 419]
21 | 0.31 | COc1cnn(-c2cc(-c3cc(C(F)F)ncc3OC)c(C(=O)Nc3nnc(C#CC4CC4)s3)cn2)c(=O)c1 [Compound 420]
22 | < 0.25 | COc1cnc(C(F)F)cc1-c1cc(-n2ncccc2=O)ncc1C(=O)Nc1nnc(C#CC2CC2)s1 [Compound 421]

Row | IC50 [nM] | SMILES
23 | 0.54 | COc1cnc(C(F)F)cc1-c1cc(-c2cccc(C)n2)ncc1C(=O)Nc1nnc(C#CC2CC2)s1 [Compound 422]
24 | 0.39 | COc1cnc(C(F)F)cc1-c1cc(N2CC3(CCC2=O)CC3)ncc1C(=O)Nc1nnc(C#CC2CC2)s1 [Compound 426]
25 | 0.27 | COCCn1ccc(-c2cc(-c3cc(C(F)F)ncc3OC)c(C(=O)Nc3nnc(C#CC4CC4)s3)cn2)n1 [Compound 427]
26 | < 0.25 | COc1cnc(C(F)F)cc1-c1cc(-c2noc(C)n2)ncc1C(=O)Nc1nnc(C#CC2CC2)s1 [Compound 428]
27 | < 0.25 | Cc1nnc(-n2cc(-c3cc(C(F)(F)F)ccc3Cl)c(C(=O)Nc3nnc(C#CC4CC4)s3)cc2=O)o1 [Compound 429]
28 | < 0.25 | COc1cnc(C(F)F)cc1-c1cc(-c2nc(C)co2)ncc1C(=O)Nc1nnc(C#CC2CC2)s1 [Compound 430]
29 | < 0.25 | C#C[C@H]1CC1c1nnc(NC(=O)c2cnc(-n3ccc(C)cc3=O)cc2-c2cc(C(F)F)ncc2OC)s1 (stereo partly drawn) [Compound 431]
30 | < 0.25 | COc1cnc(C(F)F)cc1-c1cc(N2CCN(C)C3(CC3)C2=O)ncc1C(=O)Nc1nnc(C#CC2CC2)s1 [Compound 432, N-(5-(cyclopropylethynyl)-1,3,4-thiadiazol-2-yl)-2′-(difluoromethyl)-5′-methoxy-6-(4-methyl-8-oxo-4,7-diazaspiro[2.5]octan-7-yl)-[4,4′-bipyridine]-3-carboxamide]
31 | 6.2 | CCc1nn(C)cc1-c1cc(-c2ccn(C)n2)ncc1C(=O)Nc1nnc(C#CC2CC2)s1 [Compound 433]
32 | < 0.25 | COc1ccn(-c2cc(-c3cc(C(F)F)ncc3OC)c(C(=O)Nc3nnc(C#CC4CC4)s3)cn2)c(=O)c1 [Compound 434]
33 | < 0.25 | COc1cnc(C(F)F)cc1-c1cc(-n2ncc(C)cc2=O)ncc1C(=O)Nc1nnc(C#CC2CC2)s1 [Compound 435]
34 | < 0.25 | COc1cnc(C(F)F)cc1-c1cc(-c2ccc(C)cn2)ncc1C(=O)Nc1nnc(C#CC2CC2)s1 [Compound 436]
35 | < 0.25 | COc1cnc(C(F)F)cc1-c1cc(-n2cccc(C)c2=O)ncc1C(=O)Nc1nnc(C#CC2CC2)s1 [Compound 437]
36 | < 0.25 | COc1cnc(C(F)F)cc1-c1cc(-n2cccc(OC)c2=O)ncc1C(=O)Nc1nnc(C#CC2CC2)s1 [Compound 438]
37 | < 0.25 | COc1cnc(C(F)F)cc1-c1cc(-n2ccc3occc3c2=O)ncc1C(=O)Nc1nnc(C#CC2CC2)s1 [Compound 439]
38 | < 0.25 | COc1cnc(C(F)F)cc1-c1cc(-n2cc(C)ccc2=O)ncc1C(=O)Nc1nnc(C#CC2CC2)s1 [Compound 440]
39 | 0.43 | COc1cnc(C(F)F)cc1-c1cc(N2CCCN(C)CC2=O)ncc1C(=O)Nc1nnc(C#CC2CC2)s1 [Compound 441]
40 | < 0.25 | COc1cnc(C(F)F)cc1-c1cc(N2CCCC(C)(C)C2=O)ncc1C(=O)Nc1nnc(C#CC2CC2)s1 [Compound 442]
41 | < 0.25 | COc1cnc(C(F)F)cc1-c1cc(N2CCC3CCC3C2=O)ncc1C(=O)Nc1nnc(C#CC2CC2)s1 (stereo not drawn) [Compound 443]
42 | < 0.25 | COc1cnc(C(F)F)cc1-c1cc(N2CCC(C(C)(C)C)CC2=O)ncc1C(=O)Nc1nnc(C#CC2CC2)s1 (stereo not drawn) [Compound 444]
43 | < 0.25 | COc1cnc(C(F)F)cc1-c1cc(-n2ccc(C(F)(F)F)cc2=O)ncc1C(=O)Nc1nnc(C#CC2CC2)s1 [Compound 445]
44 | < 0.25 | COc1cnc(C(F)F)cc1-c1cc(CC(=O)N2CC(F)(F)C2)ncc1C(=O)Nc1nnc(C#CC2CC2)s1 [Compound 446]

Row | IC50 [nM] | SMILES
45 | < 0.25 | COc1cnc(C(F)F)cc1-c1cc(CC(=O)N2CC(F)(F)C2)ncc1C(=O)Nc1ncc(C#CC2CC2)s1 [Compound 447]
46 | < 0.25 | Cc1ccn(-c2cc(-c3cc(C(F)F)ncc3Cl)c(C(=O)Nc3nnc(C#CC4CC4)s3)cn2)c(=O)c1 [Compound 448]
47 | < 0.25 | COc1cnc(C(F)F)cc1-c1cc(-n2cccc(F)c2=O)ncc1C(=O)Nc1nnc(C#CC2CC2)s1 [Compound 449]
48 | 0.48 | COc1cnc(C(F)F)cc1-c1cc(-c2cc(C)n(C)n2)ncc1C(=O)Nc1nnc(C#CC2CC2)s1 [Compound 450]
49 | < 0.25 | COc1cnc(C(F)F)cc1-c1cc(-n2cnc(C)c(C)c2=O)ncc1C(=O)Nc1nnc(C#CC2CC2)s1 [Compound 451]
50 | < 0.25 | COc1cnc(C(F)F)cc1-c1cc(-n2ncc(OC)c(Cl)c2=O)ncc1C(=O)Nc1nnc(C#CC2CC2)s1 [Compound 452]
51 | < 0.25 | COc1cnc(C(F)F)cc1-c1cc(-n2nccc(C)c2=O)ncc1C(=O)Nc1nnc(C#CC2CC2)s1 [Compound 453]
52 | 1.1 | COc1cnc(C(F)F)cc1-c1cc(-n2cc(N)c(C)cc2=O)ncc1C(=O)Nc1nnc(C#CC2CC2)s1 [Compound 454]
53 | < 0.25 | COc1cnc(C(F)F)cc1-c1cc(-n2cccc(Cl)c2=O)ncc1C(=O)Nc1nnc(C#CC2CC2)s1 [Compound 455]
54 | < 0.25 | COc1cnc(C(F)F)cc1-c1cc(-n2cccc(C(F)(F)F)c2=O)ncc1C(=O)Nc1nnc(C#CC2CC2)s1 [Compound 456]
55 | 0.37 | COc1cnc(C(F)F)cc1-c1cc(-c2ccn(C)n2)c(F)cc1C(=O)Nc1nnc(C#CC2CC2)s1 [Compound 457]
56 | 0.1 | COc1cnc(C(F)F)cc1-c1cc(-n2ccnc(C)c2=O)ncc1C(=O)Nc1nnc(C#CC2CC2)s1 [Compound 458]
57 | < 0.25 | COc1cnc(C(F)F)cc1-c1cc(-n2ccc(Cl)cc2=O)ncc1C(=O)Nc1nnc(C#CC2CC2)s1 [Compound 459]
58 | < 0.25 | COc1cnc(C(F)F)cc1-c1cc(-n2c(F)cccc2=O)ncc1C(=O)Nc1nnc(C#CC2CC2)s1 [Compound 461]
59 | < 0.25 | COc1cnc(C(F)F)cc1-c1cc(-n2nc3c(cc2=O)CCC3)ncc1C(=O)Nc1nnc(C#CC2CC2)s1 [Compound 462]
60 | < 0.25 | O=C(Nc1nnc(C#CC2CC2)s1)c1cnc(-n2ncccc2=O)cc1-c1cc(C(F)F)ncc1Cl [Compound 463]
61 | < 0.25 | Cc1nnc(-n2cc(-c3cc(C(F)(F)F)ccc3Cl)c(C(=O)Nc3ncc(C#CC4CC4)s3)cc2=O)o1 [Compound 464]
62 | 0.27 | COc1cnc(C(F)F)cc1-c1cc(N2CCN(C)C3(CC3)C2=O)ncc1C(=O)Nc1ncc(C#CC2CC2)s1 [Compound 465]
63 | < 0.25 | COc1cnc(C(F)F)cc1-c1cc(-n2ccc(C)c(F)c2=O)ncc1C(=O)Nc1nnc(C#CC2CC2)s1 [Compound 466]
64 | < 0.25 | COc1cnc(C(F)F)cc1-c1cc(-n2ccc(C)c(C)c2=O)ncc1C(=O)Nc1nnc(C#CC2CC2)s1 [Compound 467]
65 | < 0.25 | COc1cnc(C(F)F)cc1-c1cc(N2CC(=O)N(C)C3(CC3)C2=O)ncc1C(=O)Nc1nnc(C#CC2CC2)s1 [Compound 469]
66 | 0.0492 | Cc1cnn(-c2cc(-c3cc(C(F)F)ncc3Cl)c(C(=O)Nc3nnc(C#CC4CC4)s3)cn2)c(=O)c1 [Compound 470]
